Data on one molecule can be found in patent publication US12377069B2, “Compounds, compositions, methods of using, and methods for preparing compounds” (UNIVERSITY OF LOUISVILLE RESEARCH FOUNDATION, INC., priority 2018, dated 2025).

For the data set, the system named is HT29 cells. The data set can be described thus: RNA-Seq analysis of HT29 cells. The note with it: 50 μM, 24 h. In kind it is cell-based, human. How it is done: RNA sequencing: Total RNA was isolated from HT29 cells treated with vehicle and UroA (50 μM) (n=3) for 24 h and RNA was isolated using Trizol based lysis followed by Qiagen RNeasy kits. The isolated RNA was checked for integrity (RIN>9.5) using the Agilent Bioanalyzer 2100 system (Agilent Technologies, Santa Clara, CA) and quantified using a Qubit fluorometric assay (Thermo Fisher Scientific, Waltham, MA). Poly-A enriched […] libraries were prepared following Illumina's TruSeq Stranded mRNA LT library preparation protocol (Illumina Inc., San Diego, CA) using 1 μg of total RNA. All 15 samples were individually barcoded and quantitated with the KAPA Library Quantitation Kit for Illumina Platforms (Kapa Biosystems, Wilmington, MA) in conjunction with an Agilent Bioanalyzer DNA 1000 analysis (Agilent Technologies, Santa Clara, CA) for fragment size determination. The average fragment size was approximately 300 bp. […] of the pooled libraries with 1% PhiX spike-in was loaded on one NextSeq 500/550 75 cycle High Output Kit v2 sequencing flow cell and sequenced on the Illumina NextSeq 500 sequencer. The quality of the 1×75 bp sequences was checked using […] Quality Control Tool for High Throughput Sequence Data”). Trimming was not necessary with the median quality score above 30 (error probability=0.001 or 1 base call in 1,000 is predicted to be incorrect) across the entire length of the read and the lower quantile above a score of 20 (error probability=0.01) at the end of the read where there is an expected decrease in quality. The raw reads for each sample were directly aligned to the Homo sapiens (hg38) reference genome assembly (hg38.fa) using tophat2 (version 2.0.13) (KIM et al. (2013) “TopHat2: accurate alignment of transcriptomes in the presence of insertions, deletions and gene fusions” Genome biology, Vol. 14, Article […]), generating alignment files in bam format. Optional parameters include-no-coverage-search and -library-type fr-firststrand. […] On average, 26 million reads were aligned per sample with a mean alignment rate of 97 percent. […]

For the molecule `O=c1oc2cc(O)ccc2c2ccc(O)cc12` [UroA, 3,8-dihydroxy-6H-dibenzo[b,d]pyran-6-one], the “Cyp1A1 expression (RNA-Seq)” value is recorded as “among the top 3 UroA upregulated genes”, the “claudin 4 (Cldn4) expression (RNA-Seq)” value was “upregulated” and the “heme oxygenase 1 (HMOX1 or HO1) expression (RNA-Seq)” value is “increased the expression”.
